For three compounds, IC50 results are on record in patent US12521395B2, “Gem-disubstituted heterocyclic compounds and their use as IDH inhibitors” (NERVIANO MEDICAL SCIENCES S.R.L., priority 2019, dated 2026).

In experiment [1] the test system is cell lines HT-1080 (IDH1^R132C). Description: Cellular assay: inhibition of 2HG production, LC-MS/MS. It counts as cell-based. Conditions: Homo sapiens, 72 hr incubation, 2-HG in cell culture media, read-out: HT1080 2-HG IC50. On the procedure: Cell lines HT-1080 (commercially available) are maintained in E-MEM 10% FCS and incubated at 37° C. in a humidified 5% CO2 atmosphere.
Cells are seeded into 96 well black flat bottom plates at a density of 500 cells/well in 100 μL complete medium. After 24 hr the medium is replaced with 200 μL of fresh medium and compounds (dissolved into DMSO) are administrated to the cells using D300E Digital Dispenser (Tecan).
After 72 hr of incubation 100 μL from each well are collected and used for 2HG (R(−)-2-hydroxyglutarate) quantification. Levels of 2-HG in cell culture media are determined by LC-MS/MS. Cell supernatants (100 μL/well) are treated with 1 M aqueous trichloroacetic acid containing 130 μM of the internal standard 2-HG-d3 (20 μL/well) in a 96-well plate. The plates are sealed, mildly vortexed for 60 minutes, centrifuged at 4,000 RPM for 15 minutes, placed in a refrigerated autosampler taking care not to shake them, and aliquots of the upper part of the samples are directly injected in the chromatographic system. Calibration standards are obtained by ten folds dilution of aqueous 2-HG stock solutions with blank cell culture medium and denatured exactly in the same way as described above for samples. Samples and standards are assayed for 2-HG by reversed phase chromatography on a C18 column eluted with aqueous 0.15% formic acid and briefly washed with 90% methanol at the end of the run. 2-HG is determined by negative ion electrospray ionization with the internal standard method on a triple quadrupole mass spectrometer monitoring the MRM transitions 147>129 (2-HG) and 150>132 (2-HG-d3).
2-HG inhibition was calculated by comparing treated versus control data using Assay Explore (Symyx) software, with IC50 determined using a sigmoidal fitting algorithm.

The next experiment concerns the target IDH1^R132C (Homo sapiens, UniProt O75874, R132C). Description: NADPH depletion assay (diaphorase/resazurin), IDH1 R132C. Type of experiment: biochemical. Conditions: IDH1^R132C 2 nM, alpha-ketoglutarate 0.14 mM; read-out: IDH1^R132C IC50. Background: Resazurin is reduced to fluorescent resorufin, in cell work by metabolically active cells.
Another experiment has as its target IDH1^R132H (Homo sapiens, UniProt O75874, R132H). Description: NADPH depletion assay (diaphorase/resazurin), IDH1 R132H. It counts as biochemical. Conditions: 15 min preincubation, 60 min reaction, room temperature. As for the experimental part: (§1) IDH mutated enzyme activity converting alpha-ketoglutarate to 2-hydroxyglutaric acid is measured using a NADPH depletion assay. In the assay the remaining cofactor is measured at the end of the reaction with the addition of a catalytic excess of diaphorase and resazurin, to generate a fluorescent signal in proportion to the amount of NADPH remaining. IDH1 WT enzyme as well as mutated isoforms IDH1^R132H, IDH1^R132C, and IDH2^R172K enzymes are commercially available proteins (see e.g. Sino Biological, Abcam, Active Motif or Creative BioMart).
(§2) IDH1^R132H homodimer enzyme are diluted to 8 nM, in 10 μL of Assay Buffer (150 mM NaCl, 50 mM Tris-HCl pH 7.6, 10 mM MgCl2, 0.001% Triton X-100, 4 mM β-mercaptoethanol); 0.2 μL of test compound, previously serially diluted 1 to 3, >10 experimental points from 1 mM in DMSO, is added and the mixture is incubated for 15 minutes at room temperature. The reaction is started with the addition of 10 μL of Substrate Mix (12 μM NADPH, 3.4 mM alpha-ketoglutarate in Assay Buffer) and the mixture is incubated for 60 minutes at room temperature. The reaction is terminated with the addition of 5 μl of Detection Buffer (100 μg/mL diaphorase, 30 μM resazurin, in IX Assay Buffer), and is incubated for 15 minutes before reading on a ViewLux as platereader at Ex544/Em590.

For a further experiment, the target named is T1, IDH2^R172K (Homo sapiens, UniProt P48735, R172K).
T1 sequence (P48735 40-452 R172K): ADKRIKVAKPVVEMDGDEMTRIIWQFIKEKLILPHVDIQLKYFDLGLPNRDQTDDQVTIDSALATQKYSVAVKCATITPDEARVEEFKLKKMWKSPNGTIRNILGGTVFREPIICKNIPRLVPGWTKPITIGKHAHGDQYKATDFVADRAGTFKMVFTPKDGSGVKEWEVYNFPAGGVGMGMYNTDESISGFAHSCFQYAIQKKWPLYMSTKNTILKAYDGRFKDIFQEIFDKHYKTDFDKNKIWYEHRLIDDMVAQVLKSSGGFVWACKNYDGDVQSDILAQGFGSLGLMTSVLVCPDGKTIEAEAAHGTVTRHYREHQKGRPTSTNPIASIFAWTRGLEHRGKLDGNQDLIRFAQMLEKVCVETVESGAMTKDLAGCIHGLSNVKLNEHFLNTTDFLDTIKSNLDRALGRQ
Description: NADPH depletion assay (diaphorase/resazurin), IDH2 R172K. Type of experiment: biochemical. Conditions: IDH2^R172K 16 nM, alpha-ketoglutarate 0.55 mM. On the procedure:
as §1, §2
Compounds are assayed for their activity against IDH2^R172K following the same assay as above with the following modifications: IDH2^R172K and alpha-ketoglutarate final concentrations in the Assay Buffer is 16 nM and 0.55 mM, respectively.

The target of another experiment is IDH1 wild type enzyme (Homo sapiens, UniProt O75874). Description: Enzymatic assay for IDH1 wild-type (NADPH forming assay). It counts as biochemical. The settings on record: 0.016 nM IDH1WT, 15 min preincubation. As for the experimental part: IDH1WT enzymatic activity converting isocitric acid to alpha-ketoglutarate is measured using a NADPH forming assay. In the assay the forming cofactor is measured in continuous with the addition of a catalytic excess of diaphorase and resazurin, to generate a fluorescent signal in proportion to the amount of NADPH forming.
IDH1 wild type enzyme, sequence (O75874 whole entry): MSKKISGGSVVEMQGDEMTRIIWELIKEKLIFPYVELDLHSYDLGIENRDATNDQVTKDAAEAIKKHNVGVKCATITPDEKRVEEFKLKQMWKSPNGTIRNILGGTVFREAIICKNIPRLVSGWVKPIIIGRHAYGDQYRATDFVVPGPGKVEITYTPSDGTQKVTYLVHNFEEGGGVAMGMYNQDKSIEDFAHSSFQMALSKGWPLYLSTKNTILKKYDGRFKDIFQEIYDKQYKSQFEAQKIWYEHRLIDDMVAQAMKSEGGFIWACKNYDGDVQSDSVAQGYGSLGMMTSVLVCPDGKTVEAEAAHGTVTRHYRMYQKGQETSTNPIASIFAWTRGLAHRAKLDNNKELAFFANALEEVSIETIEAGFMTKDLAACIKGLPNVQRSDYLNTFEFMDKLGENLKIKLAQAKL
Compounds were preincubated with the enzyme, then the reaction was started by the addition of NADP+, isocitrate, diaphorase and a corresponding substrate, resazurin. Diaphorase reduces resazurin to the highly fluorescent resorufin with the concomitant oxidation of NADPH to NADP. Specifically, 0.2 μL of test compound, previously serially diluted 1 to 3, >10 experimental points from 1 mM in DMSO, was added to 0.016 nM IDH1WT enzyme in 10 μL of Assay Buffer (150 mM NaCl, 50 mM Tris-HCl pH 7.6, 10 mM MgCl2, 0.001% Triton X-100, 4 mM β-mercaptoethanol); the mixture is incubated for 15 minutes at room temperature. The reaction is started with the addition of 10 μL of Substrate Mix (400 μM NADP^+, 40 μM iso-citrate, 5 ugr/mL Diaphorase and 7 μM resazurin in Assay Buffer), the mixture is incubated at room temperature and the reaction is reading on a ViewLux as platereader at Ex544/Em590 in continuous.

IDH1^R132C, sequence (O75874 whole entry R132C): as the sequence (O75874 whole entry) above, with R132C counted along it
IDH1^R132H, sequence (O75874 whole entry R132H, canonical isoform): as the sequence (O75874 whole entry) above, with R132H counted along it

Consider `C=CC(=O)N1CCN(C2(c3ccc([C@H](C)Nc4cc5c(ccc(=O)n5C(C)C)cn4)cc3)CCC(F)(F)CC2)CC1` [cpd 47, 7-{[(1S)-1-{4-[1-(4-acryloylpiperazin-1-yl)-4,4-difluorocyclohexyl]phenyl}ethyl]amino}-1-(propan-2-yl)-1,6-naphthyridin-2(1H)-one], for which the IC50 (as a rule, the midpoint of a concentration-inhibition curve) stood at 0.6 nM in experiment [1]; 1 nM on IDH1^R132C; 2 nM against IDH1^R132H; 97 nM at IDH2^R172K; 97.4 nM at IDH1 wild type enzyme.
For `C=CC(=O)N1CCN(C2(c3ccc([C@H](C)Nc4cc5c(ccc(=O)n5C(C)C)cn4)cc3)CCOCC2)CC1` [cpd 11, 7-{[(1S)-1-{4-[4-(4-acryloylpiperazin-1-yl)tetrahydro-2H-pyran-4-yl]phenyl}ethyl]amino}-1-(propan-2-yl)-1,6-naphthyridin-2(1H)-one] the same measures were 2.6 nM, 4.8 nM, 6.4 nM, 291 nM and 364 nM.
For `C=CC(=O)N1CC(N(C)C2(c3ccc([C@H](C)Nc4ncc5ccc(=O)n(C(C)C)c5n4)cc3)CCC(F)(F)CC2)C1` [cpd 50, 2-{[(1S)-1-(4-{1-[(1-acryloylazetidin-3-yl)(methyl)amino]-4,4-difluorocyclohexyl}phenyl)ethyl]amino}-8-(propan-2-yl) pyrido[2,3-d]pyrimidin-7(8H)-one] the same measures were 10 nM, 5 nM, 20 nM, 516 nM and 516 nM.
